Test system: LAPC4 cells
Assay: RTCA impedance proliferation assay, LAPC4
Assay type: cell-based, human
Conditions: 10 μM; medium with both FBS and CSS
Protocol: (5A-5B) LNCaP cells were plated onto xCelligence E-plates at 10^4 cells per well in medium supplemented with either 10% FBS (5A) or 10% CSS (5B) serum. Cells attached overnight and were treated with vehicle (DMSO) or 10 μM of the indicated compounds. (5C-5D) LAPC4 cells were plated at 5×10^4 cells per well onto xCelligence E-plates in media supplemented with FBS (5C) or CSS (5D) and allowed to attach overnight. Treatment was conducted as in (5A-5B) and impedance measured continuously in 30 min intervals. […] Proliferation assays were done using Roche DP Real Time Cell Analyzer (RTCA), as described by the manufacturer. Background impedance was established after incubating E-plates (Acea Biosciences, San Diego, Calif.) with 50 μL media at room temperature for 30 min and placed in RTCA. Cells were then seeded in 100 μL per well. Cells attached overnight and then treated. During attachment stage and after treatment impedance was measured every 30 min. Impedance is represented by cell index and is calculated as follows: CI=(Zi−Zo)/15Ω where Zi is impedance at an individual time point, and Zo is the background impedance. Average CI was calculated from four wells per treatment at each time point and normalized to the impedance immediately after compound addition.

C[C@@H]1C/C=C/C=C/C=C/C=C/[C@H](O[C@@H]2O[C@H](C)[C@@H](O)[C@H](N)[C@@H]2O)C[C@@H]2O[C@](O)(C[C@@H](O)C[C@H]3O[C@@H]3/C=C/C(=O)O1)C[C@H](O)[C@H]2C(=O)O [natamycin]
LAPC4 cellular proliferation and attachment: abolished

— patent US11478496B2, “Treatments of prostate cancer” (THE FLORIDA INTERNATIONAL UNIVERSITY BOARD OF TRUSTEES, priority 2020, dated 2022)
